Experimental data taken from patent US8791303B2, “Herbicides” (Syngenta Limited, priority 2009, dated 2014).

Key:
Type in all cases: in vivo
[1] = test system: Alopecurus myosuroides (ALOMY); experiment: Example A glasshouse herbicide test, pre-emergence, ALOMY; conditions: Rate 250 g/ha, sprayed after cultivation for one day, evaluated after 13 days; for pest or weed control at 250 g/ha: Alopecurus myosuroides, pre-emergence, 312 h, read-out: Pre-Emergence Activity ALOMY (100=total damage to plant; 0=no damage to plant)
Method: (§1) Seeds of a variety of test species are sown in standard soil in pots. After cultivation for one day (pre-emergence) or after 8 days cultivation (post-emergence) under controlled conditions in a glasshouse (at 24/16° C., day/night; 14 hours light; 65% humidity), the plants are sprayed with an aqueous spray solution derived from the formulation of the technical active ingredient in acetone/water (50:50) solution containing 0.5% Tween 20 (polyoxyethelyene sorbitan monolaurate, CAS RN 9005-64-5).
(§2) The test plants are then grown in a glasshouse under controlled conditions in a glasshouse (at 24/16° C., day/night; 14 hours light; 65% humidity) and watered twice daily. After 13 days for pre and post-emergence, the test is evaluated (100=total damage to plant; 0=no damage to plant).
(§3) Lolium perenne (LOLPE), Alopecurus myosuroides (ALOMY), Echinochloa crus-galli (ECHCG), Avena fatua (AVEFA)

Avena fatua (AVEFA) [2] = experiment: Example A glasshouse herbicide test, post-emergence, AVEFA; conditions: Rate 250 g/ha, sprayed after 8 days cultivation, evaluated after 13 days; for pest or weed control at 250 g/ha: Avena fatua, post-emergence, 312 h, read-out: Post-Emergence Activity AVEFA (100=total damage to plant; 0=no damage to plant)
Method: as §1, §2, §3

[3] = test system: Alopecurus myosuroides (ALOMY); experiment: Example A glasshouse herbicide test, post-emergence, ALOMY; conditions: Rate 250 g/ha, sprayed after 8 days cultivation, evaluated after 13 days; for pest or weed control at 250 g/ha: Alopecurus myosuroides, post-emergence, 312 h, read-out: Post-Emergence Activity ALOMY (100=total damage to plant; 0=no damage to plant)
Method: as §1, §2, §3

Avena fatua (AVEFA) [4] = experiment: Example A glasshouse herbicide test, pre-emergence, AVEFA; conditions: Rate 250 g/ha, sprayed after cultivation for one day, evaluated after 13 days; for pest or weed control at 250 g/ha: Avena fatua, pre-emergence, 312 h, read-out: Pre-Emergence Activity AVEFA (100=total damage to plant; 0=no damage to plant)
Method: as §1, §2, §3

[5] = test system: Echinochloa crus-galli (ECHCG); experiment: Example A glasshouse herbicide test, post-emergence, ECHCG; conditions: Rate 250 g/ha, sprayed after 8 days cultivation, evaluated after 13 days; for pest or weed control at 250 g/ha: Echinochloa crus-galli, post-emergence, 312 h, read-out: Post-Emergence Activity ECHCG (100=total damage to plant; 0=no damage to plant)
Method: as §1, §2, §3

Lolium perenne (LOLPE) [6] = experiment: Example A glasshouse herbicide test, post-emergence, LOLPE; conditions: Rate 250 g/ha, sprayed after 8 days cultivation, evaluated after 13 days; for pest or weed control at 250 g/ha: Lolium perenne, post-emergence, 312 h, read-out: Post-Emergence Activity LOLPE (100=total damage to plant; 0=no damage to plant)
Method: as §1, §2, §3

[7] = test system: Echinochloa crus-galli (ECHCG); experiment: Example A glasshouse herbicide test, pre-emergence, ECHCG; conditions: Rate 250 g/ha, sprayed after cultivation for one day, evaluated after 13 days; for pest or weed control at 250 g/ha: Echinochloa crus-galli, pre-emergence, 312 h, read-out: Pre-Emergence Activity ECHCG (100=total damage to plant; 0=no damage to plant)
Method: as §1, §2, §3

Lolium perenne (LOLPE) [8] = experiment: Example A glasshouse herbicide test, pre-emergence, LOLPE; conditions: Rate 250 g/ha, sprayed after cultivation for one day, evaluated after 13 days; for pest or weed control at 250 g/ha: Lolium perenne, pre-emergence, 312 h, read-out: Pre-Emergence Activity LOLPE (100=total damage to plant; 0=no damage to plant)
Method: as §1, §2, §3

[9] = test system: Winter Wheat variety 'Hereward'; experiment: Example B crop damage test, post-emergence, unsafened wheat; conditions: Rate 250 g/ha; post-emergence spray after 8 days cultivation; no safener; evaluated after 13 days
Method: Seeds of the Winter Wheat variety ‘Hereward’ were sown in standard soil in pots. After 8 days cultivation under controlled conditions in a glasshouse (at 24/16° C., day/night; 14 hours light; 65% humidity), the plants were sprayed post-emergence with an aqueous spray solution derived from the formulation of the technical active ingredient in acetone/water (50:50) solution containing 0.5% Tween 20 (polyoxyethelyene sorbitan monolaurate, CAS RN 9005-64-5).
(§4) The test plants were then grown in a glasshouse under controlled conditions in a glasshouse (at 24/16° C., day/night; 14 hours light; 65% humidity) and watered twice daily. After 13 days for pre and post-emergence, the test was evaluated (100=total damage to plant; 0=no damage to plant).

[10] = test system: Winter Wheat variety 'Hereward'; experiment: Example B crop damage test, post-emergence, wheat seed treated with safener cloquintocet mexyl; conditions: Rate 250 g/ha; post-emergence spray 8 days after sowing; seed treated with cloquintocet mexyl 0.5 g/kg dry seed; evaluated after 13 days
Method: Seeds of the Winter Wheat variety ‘Hereward’ were seed treated with a wettable powder formulation of the cereal herbicide safener, cloquintocet mexyl, at a rate of 0.5 grams per kilogram of dry seed prior to the initiation of glasshouse testing. One seed was sown per 1.5 inch plastic pot into a sandy loam soil at a depth of 1 cm, 8 days prior to application of the test compounds and was watered and grown under controlled conditions in a glasshouse (at 24/16° C., day/night; 14 hours light; 65% humidity). The plants were sprayed post-emergence with an aqueous spray solution derived from the formulation of the technical active ingredient in acetone/water (50:50) solution containing 0.5% Tween 20 (polyoxyethelyene sorbitan monolaurate, CAS RN 9005-64-5).
as §4

Row | Molecule | Pre-Emergence Activity ALOMY (100=total damage to plant; 0=no damage to plant) [1] | Post-Emergence Activity AVEFA (100=total damage to plant; 0=no damage to plant) (Avena fatua (AVEFA) [2]) | Post-Emergence Activity ALOMY (100=total damage to plant; 0=no damage to plant) [3] | Pre-Emergence Activity AVEFA (100=total damage to plant; 0=no damage to plant) (Avena fatua (AVEFA) [4]) | Post-Emergence Activity ECHCG (100=total damage to plant; 0=no damage to plant) [5] | Post-Emergence Activity LOLPE (100=total damage to plant; 0=no damage to plant) (Lolium perenne (LOLPE) [6]) | Pre-Emergence Activity ECHCG (100=total damage to plant; 0=no damage to plant) [7] | Pre-Emergence Activity LOLPE (100=total damage to plant; 0=no damage to plant) (Lolium perenne (LOLPE) [8]) | pest or weed control at 250 g/ha [1] [%] | Winter Wheat (Hereward) damage (100=total damage to plant; 0=no damage to plant) [9] | pest or weed control at 250 g/ha (Avena fatua (AVEFA) [2]) [%] | pest or weed control at 250 g/ha [3] [%] | pest or weed control at 250 g/ha (Avena fatua (AVEFA) [4]) [%] | Winter Wheat (Hereward) + cloquintocet mexyl damage (100=total damage to plant; 0=no damage to plant) [10] | pest or weed control at 250 g/ha [5] [%] | pest or weed control at 250 g/ha (Lolium perenne (LOLPE) [6]) [%] | pest or weed control at 250 g/ha [7] [%] | pest or weed control at 250 g/ha (Lolium perenne (LOLPE) [8]) [%]
1 | 2,2-dimethyl-propionic acid 4-(4-fluoro-benzyl)-3-oxo-2-(2,4,6-trimethyl-phenyl)-cyclopent-1-enyl ester [Compound B9] | 90 | 20 | 70 | 40 | 80 | 80 | 70 | 100 |  |  |  |  |  |  |  |  |  | 
2 | Cc1cc(C)c(C2C(=O)C/C(=C\C3CCCCC3)C2=O)c(C)c1 (stereo not shown) [Compound A1] |  |  |  |  |  |  |  |  | 70 | 60 | 80 | 80 | 50 | 50 | 90 | 80 | 100 | 100
3 | Cc1cc(C)c(C2C(=O)CC(CC3CCCCC3C)C2=O)c(C)c1 (stereo not shown) [Compound A29] |  |  |  |  |  |  |  |  | 50 |  | 0 | 0 | 50 |  | 50 | 90 | 90 | 90
4 | COC1CCC(/C=C2\CC(=O)C(c3c(C)cc(C)cc3C)C2=O)CC1 (stereo not shown) [Compound A39, 4-[1-(4-Methoxy-cyclohexyl)-meth-(E)-ylidene]-2-(2,4,6-trimethyl-phenyl)-cyclopentane-1,3-dione] |  |  |  |  |  |  |  |  | 60 |  | 90 | 90 | 80 |  | 100 | 50 | 100 | 50
5 | CC(=O)OC1CCC(CC2CC(=O)C(c3c(C)cc(C)cc3C)=C2OC(=O)C(C)(C)C)CC1 (stereo not shown) [Compound B4] |  |  |  |  |  |  |  |  |  |  | 80 | 60 |  |  | 70 | 90 |  | 
6 | Cc1cc(C)c(C2=C(OC(=O)C(C)(C)C)C(CC3CCC(=NO)CC3)CC2=O)c(C)c1 (stereo not shown) [Compound B5] |  |  |  |  |  |  |  |  | 70 | 40 |  |  | 40 | 10 |  |  | 70 | 90
7 | Cc1cc(C)c(C2=C(OC(=O)C(C)(C)C)CC(Cc3cccc(Oc4ccccc4)c3)C2=O)c(C)c1 (stereo not shown) [Compound B7] |  |  |  |  |  |  |  |  | 30 |  | 0 | 20 | 0 |  | 20 | 20 | 0 | 20
8 | Cc1cc(C)c(C2=C(OC(=O)C(C)(C)C)CC(Cc3ccc(F)cc3)C2=O)c(C)c1 (stereo not shown) [Compound B8] |  |  |  |  |  |  |  |  | 70 |  | 20 | 40 | 30 |  | 40 | 70 | 50 | 100
9 | Cc1cc(C)c(C2=C(OC(=O)C(C)(C)C)CC(Cc3ccccc3C)C2=O)c(C)c1 (stereo not shown) [Compound B10] |  |  |  |  |  |  |  |  | 30 |  | 30 | 50 | 20 |  | 40 | 90 | 30 | 100
10 | Cc1cc(C)c(C2=C(OC(=O)C(C)(C)C)CC(Cc3ccccc3)C2=O)c(C)c1 (stereo not shown) [Compound B12] |  |  |  |  |  |  |  |  | 30 |  | 30 | 60 | 20 |  | 50 | 90 | 40 | 90
11 | Cc1cccc(CC2CC(OC(=O)C(C)(C)C)=C(c3c(C)cc(C)cc3C)C2=O)c1 (stereo not shown) [Compound B13] |  |  |  |  |  |  |  |  | 40 |  | 30 | 60 | 20 |  | 60 | 80 | 60 | 70
12 | Cc1cc(C)c(C2=C(OC(=O)C(C)(C)C)CC(Cc3ccc(C#N)cc3)C2=O)c(C)c1 (stereo not shown) [Compound B14] |  |  |  |  |  |  |  |  | 60 |  | 50 | 70 | 10 |  | 70 | 60 | 50 | 80
13 | Cc1cc(C)c(C2=C(OC(=O)C(C)(C)C)CC(Cc3cc(F)cc(F)c3)C2=O)c(C)c1 (stereo not shown) [Compound B15] |  |  |  |  |  |  |  |  | 20 |  | 10 | 10 | 20 |  | 50 | 70 | 40 | 70
14 | Cc1cc(C)cc(CC2CC(OC(=O)C(C)(C)C)=C(c3c(C)cc(C)cc3C)C2=O)c1 (stereo not shown) [Compound B16] |  |  |  |  |  |  |  |  | 40 |  | 10 | 30 | 10 |  | 50 | 40 | 50 | 80
15 | Cc1cc(C)c(C2=C(OC(=O)C(C)(C)C)CC(Cc3ccc(S(C)(=O)=O)cc3)C2=O)c(C)c1 (stereo not shown) [Compound B18] |  |  |  |  |  |  |  |  | 60 |  | 80 | 70 | 60 |  | 80 | 50 | 80 | 70
16 | COc1ccc(CC2CC(OC(=O)C(C)(C)C)=C(c3c(C)cc(C)cc3C)C2=O)cc1 (stereo not shown) [Compound B19] |  |  |  |  |  |  |  |  | 40 |  | 60 | 80 | 30 |  | 30 | 80 | 10 | 80
